Patent US7169786B2, “Isoxazoline derivatives as anti-depressants” (priority 2001, dated 2007)

Tests used:
hα2A receptor = molecular target: T1, hα2A receptor (Homo sapiens, UniProt P08913); test: Radioligand binding experiment for hα2A receptor ([3H]-raulwolscine); conditions: membranes of CHO cells expressing human α2A receptor, [3H]raulwolscine 1 nM; for IC50: read-out: hα2A pIC50 (converted)
T1 construct: expressed in transfected cells
T1 sequence (P08913 1-465): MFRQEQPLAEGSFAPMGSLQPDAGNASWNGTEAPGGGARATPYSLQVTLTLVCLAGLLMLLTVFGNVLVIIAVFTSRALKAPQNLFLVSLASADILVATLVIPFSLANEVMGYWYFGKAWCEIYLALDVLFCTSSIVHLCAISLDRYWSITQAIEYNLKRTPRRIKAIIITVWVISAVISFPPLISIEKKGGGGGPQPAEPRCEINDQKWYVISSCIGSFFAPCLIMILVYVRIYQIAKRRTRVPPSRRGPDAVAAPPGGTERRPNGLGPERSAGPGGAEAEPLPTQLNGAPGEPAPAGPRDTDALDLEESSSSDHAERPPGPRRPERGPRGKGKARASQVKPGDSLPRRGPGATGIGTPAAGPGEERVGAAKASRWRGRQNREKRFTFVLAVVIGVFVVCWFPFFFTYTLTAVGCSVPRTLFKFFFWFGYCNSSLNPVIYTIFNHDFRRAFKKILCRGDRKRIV
Procedure: (§1) The interaction of the compounds of Formula (I) with hα2-receptors and h5-HT-transporters was assessed in in vitro radioligand binding experiments. In general, a low concentration of a radioligand with a high binding affinity for a particular receptor or transporter is incubated with a sample of a tissue preparation enriched in a particular receptor or transporter or with a preparation of cells expressing cloned human receptors in a buffered medium. During the incubation, the radioligand binds to the receptor or transporter. When equilibrium of binding is reached, the receptor bound radioactivity is separated from the non-bound radioactivity, and the receptor- or transporter-bound activity is counted. The interaction of the test compounds with the receptor is assessed in competition binding experiments. Various concentrations of the test compound are added to the incubation mixture containing the receptor- or transporter preparation and the radioligand. The test compound in proportion to its binding affinity and its concentration inhibits binding of the radioligand. The radioligand used for hα2A, hα2B and hα2C receptor binding was [^3H]-raulwolscine and for the h5-HT transporter was [^3H]paroxetine.
(§2) CHO cells, stabile transfected with human adrenergic-α2A-, -α2B or α2C receptor cDNA, were cultured in Dulbecco's Modified Eagle's Medium (DMEM)/Nutrient mixture Ham's F12 (ratio 1:1)(Gibco, Gent-Belgium) supplemented with 10% heat inactivated fetal calf serum (Life Technologies, Merelbeke-Belgium) and antibiotics (100 IU/ml penicillin G, 100 μg/ml streptomycin sulphate, 110 μg/ml pyruvic acid and 100 μg/ml L-glutamine). One day before collection, cells were induced with 5 mM sodiumbutyrate. Upon 80–90% of confluence, cells were scraped in phosphate buffered saline without Ca^2+ and Mg^2+ and collected by centrifugation at 1500×g for 10 min. The cells were homogenised in Tris-HCl 50 mM using an Ultraturrax homogenizer and centrifuged for 10 min at 23,500×g. The pellet was washed once by resuspension and rehomogenization and the final pellet was resuspended in Tris-HCl, divided in 1 ml aliquots and stored at −70° C.
(§3) Membranes were thawed and re-homogenized in incubation buffer (glycylglycine 25 mM, pH 8.0). […] Filters were rinsed extensively with ice-cold rinsing buffer (Tris-HCl 50 mM pH 7.4). Filter-bound radioactivity was determined by scintillation counting in a Topcount (Packard, Meriden, Conn.) and results were expressed as counts per minute (cpm). Non-specific binding was determined in the presence of 1 μM oxymetazoline for hα2A- and hα2B receptors and 1 μM spiroxatrine for hα2C receptors.
(§4) Data from assays in the presence of compound were calculated as a percentage of total binding measured in the absence of test compound. Inhibition curves, plotting percent of total binding versus the log value of the concentration of the test compound, were automatically generated, and sigmoidal inhibition curves were fitted using non-linear regression. The pIC50 values of test compounds were derived from individual curves.

hα2B receptor = molecular target: T2, hα2B receptor (Homo sapiens, UniProt P18089); test: Radioligand binding experiment for hα2B receptor ([3H]-raulwolscine); conditions: membranes of CHO cells expressing human α2B receptor, [3H]raulwolscine 1 nM; for IC50: read-out: hα2B pIC50 (converted)
T2 construct: expressed in transfected cells
T2 sequence (P18089 1-450): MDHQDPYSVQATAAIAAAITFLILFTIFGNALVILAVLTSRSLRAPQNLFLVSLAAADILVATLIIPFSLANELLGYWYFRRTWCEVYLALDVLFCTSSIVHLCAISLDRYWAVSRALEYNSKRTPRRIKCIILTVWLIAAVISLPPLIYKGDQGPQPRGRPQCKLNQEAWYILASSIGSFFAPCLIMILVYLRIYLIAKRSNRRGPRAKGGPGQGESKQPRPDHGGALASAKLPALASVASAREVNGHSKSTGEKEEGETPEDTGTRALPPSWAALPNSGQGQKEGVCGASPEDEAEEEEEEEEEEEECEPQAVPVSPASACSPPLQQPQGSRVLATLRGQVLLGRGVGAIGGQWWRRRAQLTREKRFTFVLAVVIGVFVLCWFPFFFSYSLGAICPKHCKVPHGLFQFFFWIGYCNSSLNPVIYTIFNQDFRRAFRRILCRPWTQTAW
Procedure: as §1, §2, §3, §4

hα2C receptor = molecular target: T3, hα2C receptor (Homo sapiens, UniProt P18825); test: Radioligand binding experiment for hα2C receptor ([3H]-raulwolscine); conditions: membranes of CHO cells expressing human α2C receptor, [3H]raulwolscine 1 nM; for IC50: read-out: hα2C pIC50 (converted)
T3 construct: expressed in transfected cells
T3 sequence (P18825 1-462): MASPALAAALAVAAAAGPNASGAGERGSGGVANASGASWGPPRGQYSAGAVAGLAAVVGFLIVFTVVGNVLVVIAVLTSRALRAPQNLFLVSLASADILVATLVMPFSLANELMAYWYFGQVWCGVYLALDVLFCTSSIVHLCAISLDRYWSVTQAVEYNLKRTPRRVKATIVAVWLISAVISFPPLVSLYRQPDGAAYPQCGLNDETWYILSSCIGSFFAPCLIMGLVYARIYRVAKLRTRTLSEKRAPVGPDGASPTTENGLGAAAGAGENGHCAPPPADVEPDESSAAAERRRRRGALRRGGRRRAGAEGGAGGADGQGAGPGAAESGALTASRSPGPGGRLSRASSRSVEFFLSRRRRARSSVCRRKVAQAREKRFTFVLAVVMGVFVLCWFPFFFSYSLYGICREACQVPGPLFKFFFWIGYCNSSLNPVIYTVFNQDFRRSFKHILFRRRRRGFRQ
Procedure: as §1, §2, §3, §4

h5-HT transporter = molecular target: T4, h5-HT transporter (Homo sapiens, UniProt P31645); test: Radioligand binding experiment for 5-HT transporter ([3H]paroxetine, human platelet membranes); conditions: human platelet membranes, [3H]paroxetine 0.5 nM; for IC50: read-out: 5HTT pIC50 (converted)
T4 construct: Human platelet membranes (Oceanix Biosciences Corporation, Hanover, Md., USA) were thawed; tissue Oceanix Biosciences Corporation, Hanover, Md., USA; host or cells: human platelet membranes
T4 sequence (P31645 whole entry): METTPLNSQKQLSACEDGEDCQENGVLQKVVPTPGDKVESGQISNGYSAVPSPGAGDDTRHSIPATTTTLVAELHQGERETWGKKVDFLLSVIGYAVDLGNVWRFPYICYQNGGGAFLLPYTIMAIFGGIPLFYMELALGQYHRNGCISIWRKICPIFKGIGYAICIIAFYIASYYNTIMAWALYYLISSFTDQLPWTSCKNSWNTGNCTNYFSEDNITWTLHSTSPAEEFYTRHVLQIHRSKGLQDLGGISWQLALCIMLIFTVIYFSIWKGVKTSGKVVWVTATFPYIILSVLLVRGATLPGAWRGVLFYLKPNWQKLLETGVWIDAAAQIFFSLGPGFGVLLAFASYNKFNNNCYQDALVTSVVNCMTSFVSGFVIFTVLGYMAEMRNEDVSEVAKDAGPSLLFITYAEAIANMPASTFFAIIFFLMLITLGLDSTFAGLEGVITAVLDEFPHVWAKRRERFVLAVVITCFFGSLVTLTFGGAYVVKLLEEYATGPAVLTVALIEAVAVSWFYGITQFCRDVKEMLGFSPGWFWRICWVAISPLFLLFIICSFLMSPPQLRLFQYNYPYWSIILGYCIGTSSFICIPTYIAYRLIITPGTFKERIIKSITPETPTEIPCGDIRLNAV
Procedure: as §1
Human platelet membranes (Oceanix Biosciences Corporation, Hanover, Md., USA) were thawed, diluted in buffer (Tris-HCl 50 mM, 120 mM NaCl and 5 mM KCl) and quickly (max 3 s) homogenised with an Ultraturrax homogenizer. […] Filters were rinsed extensively with ice-cold buffer and radioactivity on the filters was counted in a Topcount liquid scintillation counter (Packard, Meriden, Conn.). Data were expressed as cpm. Imipramine (at 1 μM final concentration) was used to determine the non-specific binding.
as §4

Structure (SMILES) | IC50 (hα2A receptor) [nM] | IC50 (hα2B receptor) [nM] | IC50 (hα2C receptor) [nM] | IC50 (h5-HT transporter) [nM] | hα2A pIC50 (hα2A receptor) | hα2B pIC50 (hα2B receptor) | hα2C pIC50 (hα2C receptor) | 5HTT pIC50 (h5-HT transporter)
COc1cc2c(cc1Cl)C1=NOC(CN3CCN(CC(C)=Cc4ccccc4)CC3)C1CO2 (stereo not drawn) [Compound 246] |  |  |  |  | 7.55 | 7.90 | 7.86 | 7.50
COc1cc2c(cc1OC)C1=NOC(CN3CCN(Cc4cc5ccccc5o4)CC3)C1CO2 (stereo not drawn) [Compound 54] | 19.1 | 38 | 36.3 | 41.7 |  |  |  | 
COc1cc2c(cc1OC)C1=NOC(CN3CCN(C/C=C/C=C/c4ccccc4)CC3)C1CO2 (single isomer, unassigned) [Compound 127] | 141 | 123 | 25.7 | 63.1 |  |  |  | 
COc1cc2c(cc1O)OCC1C2=NOC1CN1CCN(C/C(C)=C/c2ccccc2)CC1 (stereo not drawn) [Compound 3] | 2.34 | 2.57 | 1.86 | 16.2 |  |  |  | 
COc1cc2c(cc1OC)C1=NOC(CN3CCN(CC4=Cc5ccccc5CC4)CC3)C1CO2 (stereo not drawn) [Compound 21] | 1.62 | 18.6 | 1.05 | 1.2 |  |  |  | 
COc1cc2c(cc1OC)C1=NOC(CN3CCN(Cc4ccc5cc(C)ccc5c4)CC3)C1CO2 (stereo not drawn) [Compound 72] | 46.8 | 178 | 66.1 | 6.92 |  |  |  | 
COc1cc2c(cc1OC)C1=NOC(CN3CCN(CCc4ccc5c(c4)OCO5)CC3)C1CO2 (stereo not drawn) [Compound 47] | 661 | 447 | 851 | 50.1 |  |  |  | 
C(=Cc1ccccc1)CN1CCN(CC2ON=C3c4ccccc4CCC32)CC1 (stereo not drawn) [Comp 218] | 182 | 132 | 1260 | 457 |  |  |  | 
COc1cc2c(cc1OC)C1=NOC(CN3CCN(CC(C)=Cc4cccc(F)c4)CC3)C1CO2 (stereo not drawn) [Compound 195] | 4.57 | 1.58 | 2.09 |  |  |  |  | 
COc1ccccc1C=CCN1CCN(CC2ON=C3c4cc(OC)c(OC)cc4OCC32)CC1 (stereo not drawn) [Compound 41] | 15.8 | 5.01 | 12.6 |  |  |  |  | 
COc1cc2c(cc1OC)C1=NOC(CN3CCN(CC(C)=Cc4cccc5ccccc45)CC3)C1CO2 (stereo not drawn) [Compound 157] | 13.5 | 52.5 | 74.1 |  |  |  |  | 

Continued, in another order:

IC50 (hα2A receptor) [nM] | IC50 (hα2B receptor) [nM] | IC50 (hα2C receptor) [nM] | IC50 (h5-HT transporter) [nM] | Structure (SMILES) | hα2A pIC50 (hα2A receptor) | hα2B pIC50 (hα2B receptor) | hα2C pIC50 (hα2C receptor) | 5HTT pIC50 (h5-HT transporter)
19.5 | 58.9 | 64.6 | 38.9 | COc1cc2c(cc1OC)C1=NOC(CN3CCN(Cc4ccc5c(N)cccc5c4)CC3)C1CO2 (stereo not drawn) [Compound 304] |  |  |  | 
3.24 | 7.24 | 6.92 | 245 | C(=Cc1ccccc1)CN1CCN(CC2ON=C3c4cc5c(cc4OCC32)OCO5)CC1 (stereo not drawn) [Compound 278] |  |  |  | 
3.24 | 12.6 | 2.82 | 5.01 | COCCOCOc1ccc2c(c1)OCC1C2=NOC1CN1CCN(Cc2ccc3ccccc3c2)CC1 (stereo not drawn) [Compound 267] |  |  |  | 
4.79 | 3.8 | 4.68 | 30.2 | COc1cc2c(cc1OC(C)=O)C1=NOC(CN3CCN(C/C(C)=C/c4ccccc4)CC3)C1CO2 (single isomer, unassigned) [Compound 333] |  |  |  | 
14.5 | 3.63 | 8.13 |  | COc1cc2c(cc1OC)C1=NOC(CN3CCN(CC(C)=Cc4ccc(F)cc4)CC3)C1CO2 (stereo not drawn) [Compound 196] |  |  |  | 
4.37 | 3.24 | 4.57 |  | COc1ccccc1C=C(C)CN1CCN(CC2ON=C3c4cc(OC)c(OC)cc4OCC32)CC1 (stereo not drawn) [Compound 201] |  |  |  | 
1.2 | 1 | 1.66 |  | COc1cc2c(cc1OC)C1=NOC(CN3CCN(CC(C)=Cc4cc(F)ccc4F)CC3)C1CO2 (stereo not drawn) [Compound 199] |  |  |  | 
16.6 | 7.41 | 6.31 |  | COc1cc2c(cc1F)C1=NOC(CN3CCN(CC(C)=Cc4ccccc4)CC3)C1CO2 (stereo not drawn) [Compound 241] |  |  |  | 
3.63 |  | 1.23 | 2.19 | COc1cc2c(cc1OCCN(C)C)OCC1C2=NOC1CN1CCN(C/C(C)=C/c2ccccc2)CC1 (single isomer, unassigned) [Compound 341] |  |  |  | 
